According to article PMC4222501, “Synthetic organotelluride compounds induce the reversal of Pdr5p mediated fluconazole resistance in Saccharomyces cerevisiae” (BMC Microbiology, 2014):

target: T1, Pdr5p (Saccharomyces cerevisiae, UniProt P33302); test: ATPase activity (Pi release) in Pdr5p-enriched plasma membranes, Pdr5p-null membranes subtracted; type: biochemical
T1 construct: gene PDR5; Pdr5p-enriched plasma membranes from strain AD124567
T1 sequence (P33302 whole entry): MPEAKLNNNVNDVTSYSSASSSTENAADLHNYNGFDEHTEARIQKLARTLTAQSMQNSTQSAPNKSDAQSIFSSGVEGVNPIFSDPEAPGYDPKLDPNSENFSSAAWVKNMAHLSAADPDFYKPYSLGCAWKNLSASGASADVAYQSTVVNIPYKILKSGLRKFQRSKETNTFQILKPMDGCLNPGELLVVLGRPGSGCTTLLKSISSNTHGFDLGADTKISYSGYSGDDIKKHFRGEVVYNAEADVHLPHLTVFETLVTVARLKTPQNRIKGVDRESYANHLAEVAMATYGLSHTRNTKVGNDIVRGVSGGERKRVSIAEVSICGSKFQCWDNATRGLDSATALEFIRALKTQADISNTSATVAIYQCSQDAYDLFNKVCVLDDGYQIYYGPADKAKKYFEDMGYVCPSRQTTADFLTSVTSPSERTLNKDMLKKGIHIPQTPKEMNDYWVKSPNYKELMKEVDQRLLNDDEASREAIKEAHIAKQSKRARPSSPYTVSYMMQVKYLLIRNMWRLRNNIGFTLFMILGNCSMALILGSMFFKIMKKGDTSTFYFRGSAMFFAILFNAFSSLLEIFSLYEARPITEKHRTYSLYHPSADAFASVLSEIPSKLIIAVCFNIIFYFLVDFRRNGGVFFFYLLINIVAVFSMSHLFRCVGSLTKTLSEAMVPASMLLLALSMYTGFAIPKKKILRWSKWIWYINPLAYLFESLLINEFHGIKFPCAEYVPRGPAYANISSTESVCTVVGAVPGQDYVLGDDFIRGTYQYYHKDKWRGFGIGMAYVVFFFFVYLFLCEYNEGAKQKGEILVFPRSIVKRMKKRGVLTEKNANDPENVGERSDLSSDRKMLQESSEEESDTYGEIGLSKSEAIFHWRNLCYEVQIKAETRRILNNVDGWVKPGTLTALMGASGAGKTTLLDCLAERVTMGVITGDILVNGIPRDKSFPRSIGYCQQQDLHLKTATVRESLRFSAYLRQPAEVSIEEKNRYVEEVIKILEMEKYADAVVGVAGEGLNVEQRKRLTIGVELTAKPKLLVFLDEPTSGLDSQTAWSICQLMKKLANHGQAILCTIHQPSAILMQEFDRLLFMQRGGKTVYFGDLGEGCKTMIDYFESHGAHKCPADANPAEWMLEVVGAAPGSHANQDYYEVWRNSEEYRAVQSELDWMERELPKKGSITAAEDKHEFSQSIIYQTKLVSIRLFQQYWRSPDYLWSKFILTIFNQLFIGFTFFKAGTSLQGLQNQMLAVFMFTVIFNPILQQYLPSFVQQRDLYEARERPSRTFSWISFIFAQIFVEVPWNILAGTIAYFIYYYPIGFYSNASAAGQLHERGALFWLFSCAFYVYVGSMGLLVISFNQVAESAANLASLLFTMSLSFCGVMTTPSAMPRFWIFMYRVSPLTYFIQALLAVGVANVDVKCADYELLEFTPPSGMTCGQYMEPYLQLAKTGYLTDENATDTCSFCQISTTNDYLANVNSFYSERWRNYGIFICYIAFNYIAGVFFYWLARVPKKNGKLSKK

Row | SMILES | IC50
1 | CCCC[Te]CCCNC(=O)OC(C)(C)C [compound 1] | 1.14 ± 0.21 µM
2 | CCCC[Te]CCCNC(=O)c1ccccc1 [compound 2] | 1.45 ± 0.49 µM
3 | CCCC[Te]CCCCNC(=O)c1ccccc1 [compound 3] | 1.74 ± 0.91 µM
4 | CCCC[Te]CCCCCNC(=O)c1ccccc1 [compound 5] | 1.48 ± 0.32 µM
